Measurements reported in paper PMC3731256, “Optimization of Substituted 6-Salicyl-4-Anilinoquinazoline Derivatives as Dual EGFR/HER2 Tyrosine Kinase Inhibitors” (PLoS ONE, 2013).

Experiments:
[1] = tested on: several key kinases close to EGFR/HER2; experiment: Kinase selectivity profile; assay type: biochemical; conditions: versus EGFR/HER2
Procedure: (§1) Assays for 4 serine/threonine kinases using radio labeled [γ-^32P] ATP (GE Healthcare, Piscataway, NJ) were performed in 96 well plates. Mitogen-activated protein kinase p38α (p38α), was expressed as N-terminal FLAG-tagged protein using a baculovirus expression system. Aurora-A and -B were expressed as N-terminal 6xHis tagged protein using a baculovirus expression system. CDK2/CycA was expressed as C-terminal 6His-tagged CDK2, and N-terminal GST-tagged Cyclin A protein using a baculovirus expression system.
(§2) The cytoplasmic domain of vascular endothelial growth factor receptor 2 (VEGFR2), platelet-derived growth factor receptor α (PDGFRα), cSRC were purchased from Millipore Corp. Assays for 3 tyrosine kinases were performed in 384 well plates using the Alphascreen® system (PerkinElmer) at room temperature. Enzyme reactions were performed in 50 mM Tris–HCl, pH7.5, 5 mM MnCl2, 5 mM MgCl2, 0.01% Tween-20, 2 mM dithiothreitol and 0.1 μg/ml biotinylated poly-GluTyr (4:1) containing optimized concentration of enzyme and ATP as described below.

[2] = tested on: A431 cells; experiment: Antiproliferation WST-1 assay, A431; assay type: cell-based, human; conditions: Homo sapiens, A-431, WST-1 assay; A431, overexpression of EGFR; read-out: Cellular IC50, A431
Procedure: (§3) WST-1 is better than MTT for analyzing cell proliferation, because it can be reduced to soluble formazan by dehydrogenase in mitochondria and has little toxicity to cells. Cell proliferation was determined using WST-1 dye (Beyotime Inst Biotech, China) according to manufacture’s instructions. Brieﬂy, 5 × 10^3 cells per well were seeded in a 96-well plate, grown at 37 ℃ for 24 h, and then placed in serum-starved conditions for a further 6 h. Subsequently, cells were treated with compounds (Table 1) at increasing concentrations in the presence of 10% FBS for 24 or 48h. After 10 µL WST-1 dye was added to each well, cells were incubated at 37 ℃ for 2 h and the absorbance was ﬁnally determined at 450 nm using a microplate reader.

[3] = tested on: A549 cells; experiment: Antiproliferation WST-1 assay, A549; assay type: cell-based, human; conditions: WST-1 assay; A549 carcinomic human alveolar basal epithelial cell; read-out: Cellular IC50, A549
Procedure: as §3

[4] = biological target: T1, PDGFRα (Homo sapiens, UniProt P16234); experiment: Tyrosine kinase profiling (Alphascreen), PDGFRα; assay type: biochemical; conditions: ATP concentration = Km
T1 construct: The cytoplasmic domain of vascular endothelial growth factor receptor 2 (VEGFR2), platelet-derived growth factor receptor α (PDGFRα); purchased Millipore Corp
T1 sequence (P16234 550-1089 limits assumed, species assumed): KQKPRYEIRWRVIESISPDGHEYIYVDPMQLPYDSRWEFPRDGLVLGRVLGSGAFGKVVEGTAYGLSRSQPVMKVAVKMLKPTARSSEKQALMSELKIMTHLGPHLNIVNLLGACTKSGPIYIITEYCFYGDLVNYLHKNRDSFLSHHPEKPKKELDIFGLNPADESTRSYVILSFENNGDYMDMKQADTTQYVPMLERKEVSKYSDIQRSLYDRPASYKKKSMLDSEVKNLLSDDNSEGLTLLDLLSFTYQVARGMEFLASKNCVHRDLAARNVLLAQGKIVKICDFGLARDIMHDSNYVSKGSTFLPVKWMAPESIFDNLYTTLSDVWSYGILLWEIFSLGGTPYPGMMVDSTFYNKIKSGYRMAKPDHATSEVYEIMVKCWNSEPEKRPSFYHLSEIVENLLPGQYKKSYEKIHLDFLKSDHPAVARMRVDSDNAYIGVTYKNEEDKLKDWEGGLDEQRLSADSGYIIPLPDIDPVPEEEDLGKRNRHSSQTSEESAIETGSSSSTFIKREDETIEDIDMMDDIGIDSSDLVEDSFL
Procedure: as §2
(§4) Prior to the kinase reaction, compound and enzyme were incubated for 5 min at room temperature. The reactions were initiated by adding ATP. After the reaction period as described below at room temperature, the reactions were stopped by the addition of 25 μl of 100 mM EDTA, 10 μg/ml Alphascreen streptavidin donor beads and 10 μg/ml acceptor beads described below in 62.5 mM HEPES, pH 7.4, 250 mM NaCl, and 0.1% BSA. Plates were incubated in the dark for more than 12 h and then read by EnVision 2102 Multilabel Reader (PerkinElmer). The well containing substrate and enzyme without compound was used as total reaction control. […]

[5] = biological target: T2, cSRC (Homo sapiens, UniProt P12931); experiment: Tyrosine kinase profiling (Alphascreen), cSRC; assay type: biochemical; conditions: ATP concentration = Km
T2 construct: purchased Millipore Corp
T2 sequence (P12931 whole entry, species assumed): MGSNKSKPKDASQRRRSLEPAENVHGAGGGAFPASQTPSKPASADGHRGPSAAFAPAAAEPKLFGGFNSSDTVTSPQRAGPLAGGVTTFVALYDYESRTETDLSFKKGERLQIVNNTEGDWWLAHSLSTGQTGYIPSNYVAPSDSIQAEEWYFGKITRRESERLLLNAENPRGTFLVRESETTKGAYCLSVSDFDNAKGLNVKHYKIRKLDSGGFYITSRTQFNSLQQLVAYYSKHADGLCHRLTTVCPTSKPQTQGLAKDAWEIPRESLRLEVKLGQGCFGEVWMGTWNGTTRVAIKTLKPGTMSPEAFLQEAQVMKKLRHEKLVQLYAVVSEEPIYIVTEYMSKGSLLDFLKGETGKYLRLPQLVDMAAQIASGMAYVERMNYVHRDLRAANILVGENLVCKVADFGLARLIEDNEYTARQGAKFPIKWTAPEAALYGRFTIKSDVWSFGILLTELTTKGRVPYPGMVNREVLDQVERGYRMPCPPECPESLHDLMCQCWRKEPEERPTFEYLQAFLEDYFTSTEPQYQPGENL
Procedure: as §2, §4

[6] = biological target: T3, Aurora B (Homo sapiens, UniProt Q96GD4); experiment: Serine/threonine kinase profiling ([γ-32P] ATP), Aurora B; assay type: biochemical; conditions: ATP concentration = Km
T3 construct: 6xHis (N); made in house; host or cells: baculovirus expression system
T3 sequence (Q96GD4 whole entry): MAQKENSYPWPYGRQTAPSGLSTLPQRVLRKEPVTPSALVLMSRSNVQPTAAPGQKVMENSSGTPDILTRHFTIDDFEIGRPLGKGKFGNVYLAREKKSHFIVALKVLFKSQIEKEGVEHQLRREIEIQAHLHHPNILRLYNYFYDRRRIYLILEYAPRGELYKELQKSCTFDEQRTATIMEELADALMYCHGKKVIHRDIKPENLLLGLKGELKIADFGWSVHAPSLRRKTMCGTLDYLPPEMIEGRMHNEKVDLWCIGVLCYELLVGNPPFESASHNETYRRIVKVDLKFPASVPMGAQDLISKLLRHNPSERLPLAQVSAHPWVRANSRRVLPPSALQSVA
Procedure: as §1
(§5) The reaction conditions were optimized for each kinase: p38α (100 ng/well of enzyme, 1 μg/well of MBP (Wako Pure Chemical Ind., Osaka, Japan), 0.1 μCi/well of [γ-^32P] ATP, 60 min reaction at 30 ℃); Aurora-A and -B (50 ng/well of enzyme, 30 μM of Aurora substrate peptide, 0.2 μCi/well of [γ-^32P] ATP, 60 min reaction at room temperature); CDK2/CycA (1.8 mUnits/well of enzyme, 1 μg/well of Histone H1 (Calbiochem), 0.2 μCi/well of [γ-^32P] ATP, 20 min reaction at room temperature).
(§6) All the four enzyme reactions were performed in 25 mM HEPES, pH 7.5, 10 mM magnesium acetate, 1 mM dithiothreitol and 0.5 μM ATP containing optimized concentration of enzyme, substrate and radiolabeled ATP as described above in a total volume of 50 μl. […] The radioactivity was counted by a TopCount scintillation counter (PerkinElmer).

[7] = tested on: MDA-MB-453 cells; experiment: Antiproliferation WST-1 assay, MDA-MB-453; assay type: cell-based; conditions: Homo sapiens, breast cancer, HER-2++, PTEN deficiency
Procedure: as §3

[8] = tested on: MCF-7 cells; experiment: Antiproliferation WST-1 assay, MCF-7; assay type: cell-based, human; conditions: Homo sapiens, MCF7, WST-1 assay; MCF-7 breast cancer, Her2/neu overexpression; read-out: Cellular IC50, MCF-7
Procedure: as §3

[9] = biological target: T4, Aurora A (Homo sapiens, UniProt O14965); experiment: Serine/threonine kinase profiling ([γ-32P] ATP), Aurora A; assay type: biochemical; conditions: ATP concentration = Km
T4 construct: 6xHis (N); made in house; host or cells: baculovirus expression system
T4 sequence (O14965 1-403): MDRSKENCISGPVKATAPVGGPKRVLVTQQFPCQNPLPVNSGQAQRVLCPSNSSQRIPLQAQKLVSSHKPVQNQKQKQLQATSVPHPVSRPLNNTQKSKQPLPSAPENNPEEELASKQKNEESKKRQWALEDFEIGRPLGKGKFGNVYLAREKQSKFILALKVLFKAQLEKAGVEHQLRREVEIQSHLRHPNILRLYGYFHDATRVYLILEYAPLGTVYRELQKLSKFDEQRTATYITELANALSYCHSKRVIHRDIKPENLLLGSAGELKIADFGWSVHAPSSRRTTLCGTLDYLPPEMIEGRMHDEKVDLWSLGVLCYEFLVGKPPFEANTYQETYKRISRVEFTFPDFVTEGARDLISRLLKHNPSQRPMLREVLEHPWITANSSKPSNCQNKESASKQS
Procedure: as §1, §5, §6

[10] = biological target: T5, VEGFR2 (Homo sapiens, UniProt P35968); experiment: Tyrosine kinase profiling (Alphascreen), VEGFR2; assay type: biochemical; conditions: ATP concentration = Km
T5 construct: The cytoplasmic domain of vascular endothelial growth factor receptor 2 (VEGFR2); purchased Millipore Corp
T5 sequence (P35968 786-1356 limits assumed, species assumed): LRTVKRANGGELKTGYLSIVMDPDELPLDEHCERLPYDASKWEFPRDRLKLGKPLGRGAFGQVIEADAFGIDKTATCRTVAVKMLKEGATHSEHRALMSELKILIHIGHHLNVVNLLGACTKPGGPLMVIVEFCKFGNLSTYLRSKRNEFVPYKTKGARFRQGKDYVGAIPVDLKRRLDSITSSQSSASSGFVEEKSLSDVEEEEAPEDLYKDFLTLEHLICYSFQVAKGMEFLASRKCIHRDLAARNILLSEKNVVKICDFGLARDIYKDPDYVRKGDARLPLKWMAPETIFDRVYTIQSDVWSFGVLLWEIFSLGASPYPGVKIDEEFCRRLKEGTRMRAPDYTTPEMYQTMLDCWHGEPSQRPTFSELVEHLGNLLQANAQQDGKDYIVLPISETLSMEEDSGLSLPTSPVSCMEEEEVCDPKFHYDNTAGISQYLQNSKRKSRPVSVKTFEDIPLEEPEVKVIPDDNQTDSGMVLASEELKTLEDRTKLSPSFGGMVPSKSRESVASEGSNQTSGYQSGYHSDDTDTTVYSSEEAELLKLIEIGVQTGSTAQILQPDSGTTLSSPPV
Procedure: as §2, §4

With O=C(Nc1ccc2ncnc(Nc3cccc(Br)c3)c2c1)c1ccc(C(F)(F)F)cc1O [Compound 21, N-(4-(3-bromophenylamino)quinazolin-6-yl)-2-hydroxy-4-(trifluoromethyl)benzamide] the “selectivity against major of other kinases screened” value [1] was “more than 100 fold”, the IC50 [2] was 0.67 ± 0.002 µM and the IC50 [3] was 1.64 ± 0.027 µM. The IC50 [4] was 17.3 ± 0.06 µM, the IC50 [5] was 11.9 ± 0.78 µM and the IC50 [6] was 63.7 ± 1.02 µM. The IC50 [7] was 0.92 ± 0.019 µM, the IC50 [8] was 0.49 ± 0.018 µM and the IC50 [9] was 58.4 ± 0.78 µM. For the same compound, the IC50 [10] was 29.2 ± 0.98 µM.
